# Literature values in patent US20090192228A1 (ACTAVIS GROUP PTC EHF, priority 2008, published 2009).
# Settings: compared with oxybutynin
structure (smiles),measurement,value
CC(C)N(CCC(c1ccccc1)c1cc(CO)ccc1O)C(C)C (stereo not shown),"Side-effects relative to oxybutynin, particularly propensity to cause dry mouth",considerably fewer side-effects
